Laboratory results: US9717790B2, “Sphingoglycolipid analogues” (Victoria Link Limited, priority 2013, dated 2017)
“Also recorded” adds a separate entry of the source.

Columns and labels:
[1] = test system: cytokines IL-12p70, IL-4 and IFN-γ; experiment: Analysis of cytokine release into serum; type: in vivo, C57BL/6 mice; conditions: for ratio of cytokines IFN-γ/IL-4: 0.23 nmol intravenously, blood at 18 h (IFN-γ) and 3 h (IL-4), compared to α-GalCer
Protocol: Groups of C57BL/6 mice (n=3) are injected intravenously with 0.23 nmol of the indicated compounds.
Each compound of the invention is supplied as formulated product (see example 3), and diluted in water for delivery (0.23 nmol/mouse) by intravenous injection into the lateral tail vein. In humans the expected therapeutic dose lies in the 50-4800 (μg/m^2) range (Giaccone, Punt et al. 2002). Note, 0.23 nmol in a mouse is a human equivalent dose of 30 μg/m^2 for α-GalCer.
Blood is collected from the lateral tail vein at different time intervals after glycolipid administration. Serum is collected after blood has clotted, and levels of cytokines IL-12p70, IL-4 and IFN-γ are assessed by cytokine bead array technology (Biolpex, Biorad), according to the manufacturer's instructions.

[2] = test system: C1498 acute leukemia cells; experiment: Analysis of anti-leukemia activity, C1498 challenge; type: in vivo, mice
Protocol: The prophylactic vaccines consist of irradiated C1498 cells that are incubated with compounds of the invention for 24 h. Control animals are injected with irradiated C1498 cells alone, compound alone, or left untreated. The time to onset of leukemia-associated symptoms are shown. (A) Analysis of vaccines incorporating CN161. (B) Analysis of vaccines incorporating α-GalCer.
To generate cell-based vaccines, C1498 acute leukemia cells are cultured for 24 h in complete IMDM supplemented with 200 ng/ml of α-GalCer or 200 ng/ml CN161, washed three times with PBS, and γ-irradiated (150 Gy). Vaccines comprising of 7.5×10^5 cells are administered intravenously via the lateral tail vein. Mice are monitored for onset of leukemia-associated symptoms, such as weight loss, hunching or reduced grooming. All experiments are conducted with five animals per treatment group, with controls including a leukemia-only group.

[3] = in vivo; cited from earlier work
[4] = cited from earlier work
SVYDFFVWL-loaded targets = experiment: In vivo cytotoxic capacity of TRP-2 specific T cells after vaccination; conditions: 0.23 nmol compound with long TRP-2 peptide (0.57 nmol) intravenously; targets injected 7 days after vaccination
Protocol: Control animals are injected with the long peptide alone, or α-GalCer alone. […] To discriminate the targets from host tissue, the injected cells are labelled with the fluorescent dye carboxyfluorescein succinimidyl ester (CFSE). A cohort of syngeneic splenocytes (without peptide) labelled with the fluorescent dye cell tracker orange are also injected to serve as controls. Killing is defined as the percentage of peptide-loaded targets killed relative to control cells. Each treatment group contained 5 animals with mean percentage of killing per group±SEM shown.

B16.OVA melanoma = experiment: Analysis of anti-tumour activity, B16.OVA melanoma challenge; type: in vivo, C57BL/6 mice
Protocol: Groups of C57BL/6 mice (n=5) are injected with 1×10^5 live B16.OVA tumour cells subcutaneously on day 0. On day 6 0.23 nmol of the indicated compounds (α-GalCer or CN161) mixed with OVA protein (200 μg) are administered intraveneously. The tumour size is monitored regularly with calipers until the first animal in each group reached 200 mm^2, at which point the whole group is culled.
Control animals are injected with the long peptide alone, α-GalCer alone, or left untreated. The mean tumour sizes per group (n=5)±SEM are shown.
Groups of C57BL/6 mice (n=5) receive a subcutaneous injection into the flank of 1×10^5 B16.OVA melanoma cells, which express a cDNA encoding the chicken ovalbumin (OVA) sequence. The different groups are treated 7 days later, when tumours are fully engrafted, by intravenous injection of one of the following; vaccines as indicated in text and figure legends. Mice are monitored for tumour growth every 3-4 days, and tumour size for each group is calculated as the mean of the products of bisecting diameters (+SEM). Measurements are terminated for each group when the first animal develops a tumour exceeding […].

human NKT cells = experiment: Proliferation of human NKT cells in PBMC culture; type: cell-based; conditions: PBMC from one donor, 7 days culture with IL-2
Protocol: Peripheral blood mononuclear cells from one donor are cultured for 7 days with different doses of the indicated compounds in the presence of IL-2, and then the percentages of NKT cells in the final cultures determined by flow cytometry with fluorescent α-GalCer-loaded CD1d tetramers and anti-CD3. Data are expressed as percentage of NKT cells (α-GalCer/CD1d tetramer and anti-CD3-binding cells) of total T cells (all anti-CD3-binding cells).
Peripheral blood is drawn into heparinized tubes, diluted 1:1 in PBS, and layered over a sodium diatrizoate and polysaccharide solution (Lymphoprep; Axis-Shield, Oslo, Norway) before centrifugation at 800×g for 25 minutes at room temperature to collect the peripheral blood mononuclear cell (PBMC) fraction, which contains NKT cells. To assess proliferation of NKT cells, PBMC (2×10^5 per well) are cultured at 37° C. in Iscove's Modified Dulbecco's Medium with 5% human AB serum and the indicated concentrations of α-GalCer, or CN161, with recombinant human IL-2 50 U/mL (Chiron Corporation, Emeryville, Calif.) added after 24 hours. After 7 days of culture, the cells are analysed by flow cytometry, using fluorescent soluble CD1d tetramers that have been loaded with α-GalCer to identify the NKT cells. […]

[5] = cell-based vaccine: irradiated C1498 cells incubated with compound (200 ng/ml) for 24 h, intravenously

Row | Compound | ratio of cytokines IFN-γ/IL-4 [1] | time of peak IFN-γ level in the serum ([1]; after injection) | time of peak IL-12p70 level in the serum ([1]; after injection) | time of peak production of IL-4 in the serum ([1]; after injection) | anti-leukemia activity (time to onset of leukemia-associated symptoms) [2, 5] | anti-leukemia activity (time to onset of leukemia-associated symptoms) ([2]; compound injected alone) | efficacy in human clinical trials [3] | solubility [4] | cytotoxic response (killing of peptide-loaded targets) (SVYDFFVWL-loaded targets) | antitumour activity against B16.OVA melanoma (tumour growth) (B16.OVA melanoma; 0.23 nmol compound with long TRP2 peptide (0.57 nmol) intravenously) | antitumour activity against B16.OVA melanoma (B16.OVA melanoma; compound with long OVA peptide KISQAVHAAHAEINEAGRESIINFEKLTEWT intravenously) | vaccine adjuvant activity, progression of B16.OVA melanoma (B16.OVA melanoma; therapeutic challenge, 0.23 nmol compound mixed with OVA protein (200 μg) intravenously) | proliferation of iNKT cells (percentage of NKT cells of total T cells) (human NKT cells)
1 | CCCCCCCCCCCCCCCCCCCCCCCCCC(=O)N[C@@H](CO[C@H]1O[C@@H]2CO[C@@H]2[C@H](O)[C@H]1O)[C@H](O)[C@H](O)CCCCCCCCCCCCCC [CN154, (2S,3S,4R)-1-(4,6-Anhydro-α-D-galactopyranosyloxy)-2-hexacosanoylamino-3,4-octadecandiol] | higher ratio of IFN-γ/IL-4 |  |  |  |  |  |  |  |  |  |  |  | 
2 | CCCCCCCCCCCCCCCCCCCCCCCCCC(=O)N[C@@H](CO[C@H]1O[C@H](CO)[C@H](O)[C@H](O)[C@H]1O)[C@H](O)[C@H](O)CCCCCCCCCCCCCC [α-GalCer, α-Galactosylceramide] |  | > 12 h | 6 h | 2 to 3 h | significant protection | not active and not | lack of efficacy | poor solubility |  |  |  |  | 
3 | CCCCCCCCCCCCCCCCCCCCCCCCCC(=O)N[C@@H](C[C@]1(O)O[C@H](CSSC[C@H]2O[C@@](O)(C[C@H](NC(=O)CCCCCCCCCCCCCCCCCCCCCCCCC)[C@H](O)[C@H](O)CCCCCCCCCCCCCC)[C@H](O)[C@@H](O)[C@H]2O)[C@H](O)[C@H](O)[C@H]1O)[C@H](O)[C@H](O)CCCCCCCCCCCCCC [CN161, 6,6′-Disulfanediylbis[6-deoxy-1-((2S,3S,4R)-3,4-dihydroxy-2-(hexacosanoylamino)octadecyl)-α-D-galactopyranose]] | higher ratio of IFN-γ/IL-4 |  |  |  | anti-leukemia activity; also recorded: significant protection | anti-leukemia activity; also recorded: can provide protection |  |  | potent antigen-specific cytotoxicity; also recorded: greater cytotoxic response | delayed tumour growth; also recorded: anti-tumour activity | equivalent anti-tumour activity | potent vaccine adjuvant activity | able to induce the proliferation of iNKT cells
